Measurements published in PMC3162021 (PLoS ONE, 2011).
Substitutions are numbered along the chain they refer to.

How the values were obtained:
α1 GlyR = molecular target: T1, α1 GlyR (Rattus norvegicus, UniProt P07727); assay: whole-cell voltage clamp, modulation of glycine current; assay type: cell-based; settings: positive allosteric modulator; glycine at EC10, co-applied; pH 7.4, 20-24 °C
T1 construct: gene Glra1; homomeric α1, expressed in HEK 293 cells from pCI or pcDNA3; A52, I240, G254, S296, K385 (mature numbering); K385 fits the form without the 8-residue loop insert
T1 sequence (P07727 29-449 isoform P07727-2): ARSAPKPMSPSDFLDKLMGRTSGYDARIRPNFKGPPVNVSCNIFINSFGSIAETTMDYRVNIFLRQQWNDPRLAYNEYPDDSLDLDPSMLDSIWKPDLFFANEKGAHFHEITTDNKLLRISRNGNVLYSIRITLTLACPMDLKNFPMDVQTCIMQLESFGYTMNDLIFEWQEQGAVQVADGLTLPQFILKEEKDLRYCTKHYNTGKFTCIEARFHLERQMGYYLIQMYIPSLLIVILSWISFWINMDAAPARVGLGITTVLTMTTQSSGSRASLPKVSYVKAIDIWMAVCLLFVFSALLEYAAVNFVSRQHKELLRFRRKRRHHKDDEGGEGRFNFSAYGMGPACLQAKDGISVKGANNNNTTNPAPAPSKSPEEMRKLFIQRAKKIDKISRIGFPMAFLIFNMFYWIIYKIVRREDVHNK

α2 GlyR [1] = molecular target: T2, α2 GlyR (Rattus norvegicus, UniProt P22771); assay: as above; assay type: cell-based; settings: positive allosteric modulator; glycine at EC10, co-applied; pH 7.4, 20-24 °C
T2 construct: gene Glra2; homomeric α2, expressed in HEK 293 cells; T59, A261, A303 (T59 fits splice form alpha-2A)
T2 sequence (P22771 28-452): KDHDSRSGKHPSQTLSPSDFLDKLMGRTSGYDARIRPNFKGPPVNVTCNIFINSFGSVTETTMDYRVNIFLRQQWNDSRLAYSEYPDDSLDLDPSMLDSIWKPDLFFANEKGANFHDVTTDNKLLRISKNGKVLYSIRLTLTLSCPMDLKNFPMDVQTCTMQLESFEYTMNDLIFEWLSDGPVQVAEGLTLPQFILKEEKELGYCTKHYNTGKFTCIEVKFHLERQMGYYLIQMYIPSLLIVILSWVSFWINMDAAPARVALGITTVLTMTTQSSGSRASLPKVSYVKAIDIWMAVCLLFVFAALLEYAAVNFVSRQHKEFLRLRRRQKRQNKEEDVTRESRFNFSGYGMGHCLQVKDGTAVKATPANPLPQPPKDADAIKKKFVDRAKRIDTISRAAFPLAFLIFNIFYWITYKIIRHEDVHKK

α2 GlyR [2] = molecular target: T2, α2 GlyR; assay: as above; assay type: cell-based; settings: allosteric inhibitor; glycine at EC10, co-applied; pH 7.4, 20-24 °C
α2α1 = test system: T3, α2α1; assay: whole-cell voltage clamp, concentration-response; assay type: cell-based, Rattus norvegicus; settings: agonist; pH 7.4, 20-24 °C, -60 mV
T3 construct: gene Glra2; one fused subunit: α2 upstream of the TM3-4 loop (ECD to TM3), then α1 intracellular loop plus TM4; HEK 293
Description: whole-cell voltage clamp, concentration-response on α2α1

α1α2 = test system: T4, α1α2; assay: whole-cell voltage clamp, concentration-response; assay type: cell-based, Rattus norvegicus; settings: agonist; pH 7.4, 20-24 °C, -60 mV
T4 construct: gene Glra1; one fused subunit: α1 upstream of the TM3-4 loop (ECD to TM3), then α2 intracellular loop plus TM4; HEK 293
Description: whole-cell voltage clamp, concentration-response on α1α2

α2 GlyR [3] = molecular target: T2, α2 GlyR; assay: whole-cell voltage clamp, concentration-response; assay type: cell-based
Description: (§1) whole-cell voltage clamp, concentration-response on α2 GlyR

α2 GlyR [4] = molecular target: T5, α2 GlyR (Rattus norvegicus, UniProt P22771, A288G); assay: whole-cell voltage clamp, concentration-response; assay type: cell-based
T5 construct: gene Glra2; homomeric α2, expressed in HEK 293 cells; T59, A261, A303 (T59 fits splice form alpha-2A)
T5 sequence (P22771 28-452 A288G): T2 sequence (P22771 28-452) with A261G
Description: as §1

α2 GlyR [5] = molecular target: T6, α2 GlyR (Rattus norvegicus, UniProt P22771, A288G/A330S/T86A); assay: whole-cell voltage clamp, concentration-response; assay type: cell-based
T6 construct: gene Glra2; homomeric α2, expressed in HEK 293 cells; T59, A261, A303 (T59 fits splice form alpha-2A)
T6 sequence (P22771 28-452 T86A/A288G/A330S): T2 sequence (P22771 28-452) with T59A, A261G, A303S
Description: as §1

α2 GlyR [6] = molecular target: T7, α2 GlyR (Rattus norvegicus, UniProt P22771, A288G/T86A); assay: whole-cell voltage clamp, concentration-response; assay type: cell-based
T7 construct: gene Glra2; homomeric α2, expressed in HEK 293 cells; T59, A261, A303 (T59 fits splice form alpha-2A)
T7 sequence (P22771 28-452 T86A/A288G): T2 sequence (P22771 28-452) with T59A, A261G
Description: as §1

α2 GlyR [7] = molecular target: T8, α2 GlyR (Rattus norvegicus, UniProt P22771, T86A); assay: whole-cell voltage clamp, concentration-response; assay type: cell-based
T8 construct: gene Glra2; homomeric α2, expressed in HEK 293 cells; T59, A261, A303 (T59 fits splice form alpha-2A)
T8 sequence (P22771 28-452 T86A): T2 sequence (P22771 28-452) with T59A
Description: as §1

SMILES	% potentiation at 10 μM (α1 GlyR)	% potentiation at 10 μM (α2 GlyR [1])	% change of current at 10 μM (α2 GlyR [2])	EC50 (α2α1)	EC50 (α1α2)	EC50 (α2 GlyR [3])	EC50 (α2 GlyR [4])	EC50 (α2 GlyR [5])	EC50 (α2 GlyR [6])	EC50 (α2 GlyR [7])
CCCCC/C=C\C/C=C\C/C=C\C/C=C\CCCC(=O)NCCO [AEA]	AEA, anandamide	showed consistent positive allosteric modulation of all the GlyR isoforms	–	–	–	–	–	–	–	–
CCCCC/C=C\C/C=C\C/C=C\C/C=C\CCCC(=O)NCC(=O)O [NA-Gly]	101±11%	–	−56±5%	–	–	–	–	–	–	–
NCC(=O)O [glycine]	–	–	–	111 ± 1 µM	86 ± 3 µM	120 ± 6 µM	217 ± 6 µM	102 ± 2 µM	76 ± 2 µM	63 ± 1 µM
